# Measured values: publication PMC6863074 (Journal of medicinal chemistry, 2015)
# “Also recorded” adds a separate entry of the source. Read-outs that look alike come from different tables or passages of the source. Marks after values point to notes of the source that are not given here.
# Tests used:
# [1] = cited from earlier work
# S. epidermis ATCC 35547 = assay: MIC determination, S. epidermis ATCC 35547; assay type: cell-based
# S. aureus ATCC 29213 [2] = assay: MIC determination, S. aureus ATCC 29213; conditions: S. aureus ATCC 29213 MIC screening; active = MIC ≤ 8 μg/mL
# HepG2 cells = assay: XTT cytotoxicity assay with HepG2 cells
# Full PK study in mice = conditions: mouse
# S. aureus ATCC 29213 [3] = assay: Minimal-bactericidal concentration; conditions: S. aureus ATCC 29213 (MSSA); MBC = >1000-fold reduction in colonies
# S. aureus ATCC 29213 [4] = conditions: S. aureus ATCC 29213, MSSA quality-control strain; cited from earlier work
# S. aureus ATCC 27660 = conditions: cited from earlier work
Compound,antibacterial activity (in words) (S. aureus ATCC 29213 [2]),further results
CO[C@H]1/C=C/O[C@@]2(C)Oc3c(C)c(O)c4c(O)c(c(/C=N/N5CCN(C)CC5)c(O)c4c3C2=O)NC(=O)/C(C)=C\C=C\[C@H](C)[C@H](O)[C@@H](C)[C@@H](O)[C@@H](C)[C@H](OC(C)=O)[C@@H]1C [rifampicin],,plasma protein binding ([1]; antibiotics on the market): > 91%
"CC(C)Nc1c[nH]nc1-c1nc(-c2ccc(Oc3ccc(C(F)(F)F)cc3)cc2)no1 [65b, N-Isopropyl-3-(3-(4-(4-(trifluoromethyl)phenoxy)phenyl)-1,2,4-oxadiazol-5-yl)-1H-pyrazol-4-amine]",active,"MIC (S. epidermis ATCC 35547): > 128 µg/mL; IC50 (HepG2 cells; Homo sapiens, HepG2, read-out: XTT HepG2 IC50): 3.9 ± 0.8 µg/mL"
"FC(F)(F)c1ccc(Oc2ccc(-c3noc(-c4ccc5[nH]ccc5c4)n3)cc2)cc1 [75b, 5-(1H-Indol-5-yl)-3-(4-(4-(trifluoromethyl)phenoxy)phenyl)-1,2,4-oxadiazole]",,"fold less toxic compared to the lead 1 (XTT HepG2) (HepG2 cells; HepG2 cells, versus compound 1): 5 fold; clearance as % of hepatic blood flow (Full PK study in mice; 20 mg/kg iv): less than 10%; t1/2α (Full PK study in mice; 20 mg/kg iv): t1/2α = 0.54 min; t1/2dist (Full PK study in mice; 20 mg/kg po): t1/2dist = 15.9 h; fold higher volume of distribution than 1 (Full PK study in mice; versus compound 1): 13 fold; fold lower clearance than 1 (Full PK study in mice; versus compound 1): 3 fold; MBC relative to MIC (S. aureus ATCC 29213 [3]): the same as the MIC value"
teicoplanin,,plasma protein binding ([1]; plasma): > 91%
CCCCCCCCCC(=O)N[C@@H](Cc1c[nH]c2ccccc12)C(=O)N[C@H](CC(N)=O)C(=O)N[C@@H](CC(=O)O)C(=O)N[C@@H]1C(=O)NCC(=O)N[C@@H](CCCN)C(=O)N[C@@H](CC(=O)O)C(=O)N[C@H](C)C(=O)N[C@@H](CC(=O)O)C(=O)NCC(=O)N[C@H](CO)C(=O)N[C@@H]([C@H](C)CC(=O)O)C(=O)N[C@@H](CC(=O)c2ccccc2N)C(=O)O[C@@H]1C [daptomycin],,plasma protein binding ([1]; plasma): > 91%
O=P(O)(O)c1ccc(-c2nc(-c3ccc(Oc4ccc(F)cc4)cc3)no2)cc1 [84c],loss of activity; also recorded: attenuate or abrogate activity,
Cc1nc(-c2ccc(Oc3ccccc3)cc2)no1 [113a],abolishes activity,
CCCCNc1c[nH]nc1-c1nc(-c2ccc(Oc3ccc(C(F)(F)F)cc3)cc2)no1 [104b],did not extend,
Oc1c(F)cc(-c2nc(-c3ccc(Oc4ccc(C(F)(F)F)cc4)cc3)no2)cc1F [71b],without significant loss of activity,
COC(=O)c1ccc(-c2nc(-c3ccc(Oc4ccc(F)cc4)cc3)no2)cc1 [90c],failed to show activity,
OCC#Cc1c[nH]nc1-c1nc(-c2ccc(Oc3ccc(C(F)(F)F)cc3)cc2)no1 [68b],maintained good activity,
Nc1ccc(-c2nc(-c3ccc(Oc4ccc(C(F)(F)F)cc4)cc3)no2)cc1 [58b],low MIC values,
Nc1c[nH]c(-c2nc(-c3ccc(Oc4ccc(F)cc4)cc3)no2)c1 [126c],generally abolish antibacterial activity,
FC(F)(F)c1ccc(Oc2ccc(-c3noc(-c4n[nH]cc4NC4CCCC4)n3)cc2)cc1 [107b],did not extend,
Nc1cncc(-c2nc(-c3ccc(Oc4ccc(C(F)(F)F)cc4)cc3)no2)c1 [122b],No activity,
"Nc1c[nH]nc1-c1nc(-c2ccc(Oc3ccc(C(F)(F)F)cc3)cc2)no1 [64b, 3-(3-(4-(4-(Trifluoromethyl)phenoxy)phenyl)-1,2,4-oxadiazol-5-yl)-1H-pyrazol-4-amine]",tolerated,
FC(F)(F)c1ccc(Oc2ccc(-c3noc(-c4cc[nH]n4)n3)cc2)cc1 [102b],No activity,

Compound,antibacterial activity (in words) (S. aureus ATCC 29213 [2]),further results
Nc1ccc(-c2nc(-c3ccc(Oc4ccccc4)cc3)no2)cc1 [58a],low MIC values,
O=[N+]([O-])c1c[nH]c(-c2nc(-c3ccc(Oc4ccc(C(F)(F)F)cc4)cc3)no2)c1 [78b],retained good activity,
Cc1onc(-c2ccccc2)c1C(=O)N[C@@H]1C(=O)N2[C@@H]1SC(C)(C)[C@@H]2C(=O)O [oxacillin],,plasma protein binding ([1]; plasma): > 91%
NS(=O)(=O)c1ccc(-c2nc(-c3ccc(Oc4ccc(C(F)(F)F)cc4)cc3)no2)cc1 [87b],failed to show activity; also recorded: attenuate or abrogate activity,
O=[N+]([O-])c1c[nH]c(-c2nc(-c3ccc(Oc4ccc(F)cc4)cc3)no2)c1 [78c],generally abolish antibacterial activity,
O=c1[nH]c(-c2ccc(Oc3ccccc3)cc2)no1 [112a],abolishes activity,
[O-][n+]1ccc(-c2nc(-c3ccc(Oc4ccccc4)cc3)no2)cc1 [115a],generally abolish antibacterial activity,
O=C(O)c1ccc(-c2nc(-c3ccc(Oc4ccc(F)cc4)cc3)no2)cc1 [89c],failed to show activity; also recorded: attenuate or abrogate activity,
FC(F)(F)c1ccc(Oc2ccc(-c3noc(-c4n[nH]c5ccccc45)n3)cc2)cc1 [123b],No activity,
O=C(Nc1c[nH]nc1-c1nc(-c2ccc(Oc3ccc(C(F)(F)F)cc3)cc2)no1)c1ccccn1 [109b],did not extend,
FC(F)(F)c1ccc(Oc2ccc(-c3noc(-c4n[nH]cc4NC4CCCCC4)n3)cc2)cc1 [106b],did not extend,
CC(=O)NC[C@H]1CN(c2ccc(N3CCOCC3)c(F)c2)C(=O)O1 [linezolid],,MIC (S. aureus ATCC 29213 [4]): 4 µg/mL
Oc1ccc(-c2nc(-c3ccc(Oc4ccc(C(F)(F)F)cc4)cc3)no2)cc1 [compound 1],,"ED50 (S. aureus ATCC 27660; iv, 2 doses given at 30 min and 7.5 h after infection): ED50 = 40 mg/kg^c; ED50 (S. aureus ATCC 27660; po, single dose given at 1 h after infection): 44^a mg/kg"
CCn1ccc(-c2nc(-c3ccc(Oc4ccc(F)cc4)cc3)no2)n1 [118c],No activity,
COc1cc(-c2nc(-c3ccc(Oc4ccc(C(F)(F)F)cc4)cc3)no2)ccc1O [93b],failed to show activity; also recorded: abolish activity,
Nc1cc(-c2nc(-c3ccc(Oc4ccc(F)cc4)cc3)no2)ccc1O [92c],failed to show activity,
O=[N+]([O-])c1cc(-c2nc(-c3ccc(Oc4ccc(F)cc4)cc3)no2)ccc1O [91c],failed to show activity; also recorded: abolish activity,
